In the supplement of paper PMC10307832:

What was measured:
Assay in all cases: relative viability (nuclei count vs DMSO), 5 days (fraction); higher = more cells survive
Carfilzomib = compound: CC(C)C[C@H](NC(=O)[C@H](CCc1ccccc1)NC(=O)CN1CCOCC1)C(=O)N[C@@H](Cc1ccccc1)C(=O)N[C@@H](CC(C)C)C(=O)[C@@]1(C)CO1 [Carfilzomib]
How it was run: (§1)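 In 1536-well plates, lung cancer cell lines rested overnight at 37 °C before five library-drug doses (not always all listed), √10 apart, were pinned onto vehicle-anchored plates. Nuclei were counted with MetaXpress from 4× Hoechst images taken after 5 days without medium change. Viability compares treated-well with vehicle-well nuclei as a median over plates, and plates needed control CV below 25% plus at least one doubling to pass.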

Olaparib = compound: O=C(c1cc(Cc2n[nH]c(=O)c3ccccc23)ccc1F)N1CCN(C(=O)C2CC2)CC1 [Olaparib]
How it was run: as §1

Crizotinib = compound: C[C@@H](Oc1cc(-c2cnn(C3CCNCC3)c2)cnc1N)c1c(Cl)ccc(F)c1Cl [Crizotinib]
How it was run: as §1

Olaparib + Pictilisib = compound: O=C(c1cc(Cc2n[nH]c(=O)c3ccccc23)ccc1F)N1CCN(C(=O)C2CC2)CC1 [Olaparib] + CS(=O)(=O)N1CCN(Cc2cc3nc(-c4cccc5[nH]ncc45)nc(N4CCOCC4)c3s2)CC1 [Pictilisib] (partner 1 µM)
How it was run: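 Dosing by pin tool came one day after lung cancer cell lines were seeded in 1536-well plates, using either one drug or a fixed anchor-drug dose plus five library-drug doses (not always all listed) in √10 steps. After 5 days, nuclei were counted on 4× images. Relative viability is treated-well nuclei count divided by vehicle-well nuclei count, and values are medians of duplicate plates.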

Row | Cell Line | relative viability (Carfilzomib; 0.001 µM) | relative viability (Carfilzomib; 0.003162 µM) | relative viability (Carfilzomib; 0.01 µM) | relative viability (Carfilzomib; 0.03162 µM) | relative viability (Carfilzomib; 0.1 µM) | relative viability (Olaparib; 0.08 µM) | relative viability (Olaparib; 0.253 µM) | relative viability (Olaparib; 2.53 µM) | relative viability (Olaparib; 8 µM) | relative viability (Olaparib; 8 µM, anchor plate) | relative viability (Crizotinib; 0.01 µM) | relative viability (Crizotinib; 0.03162 µM) | relative viability (Crizotinib; 0.1 µM) | relative viability (Crizotinib; 1 µM) | relative viability (Crizotinib; 1 µM, anchor plate) | relative viability (Olaparib + Pictilisib; first compound 0.08 µM) | relative viability (Olaparib + Pictilisib; first compound 0.253 µM) | relative viability (Olaparib + Pictilisib; first compound 2.53 µM) | relative viability (Olaparib + Pictilisib; first compound 8 µM) | relative viability (Crizotinib; 0.3162 µM)
1 | HCC-15 | 0.954 | 1.07 | 1.07 | 0.709 | 0.177 | 1.09 | 0.904 | 0.999 | 0.878 | 0.731 | 0.917 | 1.04 | 1.01 | 0.974 | 0.813 | 0.866 | 0.647 | 0.678 | 0.627 | –
2 | HCC-44 | 0.988 | 0.996 | 1.05 | 0.819 | 0.317 | 1.04 | 0.949 | 1.02 | 1.08 | 0.963 | 0.967 | 0.974 | 1.06 | 0.944 | 0.785 | 0.697 | 0.552 | 0.7 | 0.544 | 0.879
3 | HCC-78 | 0.839 | 1.09 | 1.07 | 0.662 | 0.267 | 1.1 | 0.836 | 0.953 | 0.861 | 0.831 | 0.916 | 0.993 | 1.01 | 0.778 | 0.348 | 0.241 | 0.204 | 0.208 | 0.196 | 0.476
4 | HCC-366 | 0.992 | 1.02 | 1.01 | 1.05 | 0.0704 | 1.05 | 0.988 | 0.943 | 0.862 | 0.352 | 0.952 | 1.01 | – | 1.07 | 0.466 | 0.135 | 0.179 | 0.11 | 0.138 | –
5 | HCC-827 | 1.05 | 1.05 | 1.09 | 0.97 | 0.647 | 0.999 | 0.989 | 0.962 | 0.966 | 0.61 | 0.985 | 1.03 | 1.03 | 1.03 | – | 0.905 | 0.781 | 1.07 | 0.95 | 0.901
6 | HOP-62 | 1.04 | 1.09 | 0.92 | 0.251 | 0.106 | 1.08 | 0.984 | 0.997 | 0.722 | 0.384 | 0.96 | 1.01 | 1.03 | 1.04 | 1 | 0.846 | 0.601 | 0.698 | 0.464 | 0.874
7 | IA-LM | 0.884 | 0.879 | 0.94 | 0.107 | 0.0275 | 1.04 | 0.889 | 0.958 | 0.79 | 0.853 | 0.972 | 0.959 | 1.03 | 0.888 | 0.79 | 0.392 | 0.372 | 0.321 | 0.317 | 0.872
8 | LC-2-ad | 1.04 | 1.16 | 1.03 | 0.473 | 0.226 | 1.09 | 0.89 | 0.943 | 0.866 | 0.697 | 0.921 | 1.02 | 1.02 | – | 0.458 | 0.529 | 0.523 | 0.491 | 0.336 | –
9 | LCLC-97TM1 | 0.907 | 1.07 | 0.999 | 0.368 | 0.0609 | 1.02 | 0.938 | 0.904 | 0.913 | 0.374 | 0.902 | 1.1 | 1 | 0.993 | 0.338 | 0.263 | 0.233 | 0.174 | 0.152 | 0.727
10 | LCLC-103H | 0.923 | 0.974 | 0.998 | 0.984 | 0.459 | 1.04 | 0.893 | 1 | 0.862 | 0.749 | 0.906 | 1.02 | 1.07 | 1 | 1.01 | 0.682 | 0.557 | 0.53 | 0.52 | 0.991
11 | LK-2 | 0.937 | 1.31 | 0.96 | 0.205 | 0.201 | 1.19 | 0.896 | 1.09 | 1.01 | 0.803 | 0.972 | 0.87 | 0.943 | – | – | 0.752 | 0.587 | 0.599 | 0.5 | 1.03
12 | LOU-NH91 | 0.962 | 1.08 | 0.745 | 0.314 | 0.309 | 1.16 | 0.943 | 1.01 | 0.962 | 0.914 | 0.945 | 0.905 | 1.09 | 0.985 | 0.729 | 0.559 | 0.524 | 0.515 | 0.503 | 0.949
13 | LU99A | 0.991 | 1.06 | 0.982 | 0.893 | 0.433 | 0.98 | 0.837 | 0.776 | 0.532 | 0.266 | 0.894 | 1.03 | – | 0.969 | 0.547 | 0.303 | 0.293 | 0.3 | 0.296 | 0.795
14 | NCI-H522 | 0.889 | 1.11 | 1.01 | 0.734 | 0.375 | 1.08 | 1.01 | 0.973 | 0.703 | 0.679 | 0.919 | 0.954 | 0.888 | 0.893 | – | – | – | – | – | –
15 | NCI-H1623 | 0.972 | 1.12 | 1.04 | 0.885 | 0.33 | 1.07 | 0.987 | 0.917 | 0.791 | – | 0.891 | 1.01 | 0.915 | 0.891 | – | – | – | – | – | 0.89
16 | NCI-H1648 | 0.845 | 1.11 | 1.14 | 0.725 | 0.416 | 0.956 | 0.908 | – | 1.2 | 0.818 | 0.742 | 1.33 | 0.651 | 1.1 | – | – | – | – | – | 0.958
17 | NCI-H2342 | 0.975 | 0.957 | 1.06 | 0.968 | 0.825 | 0.974 | 0.951 | 0.936 | 0.941 | 0.452 | 0.891 | 0.999 | – | 0.882 | – | – | – | – | – | 0.867
18 | SW 900 | 0.747 | 0.883 | 0.288 | 0.161 | 0.192 | 0.879 | 0.855 | 0.715 | 0.716 | 0.905 | 0.811 | 0.97 | 0.93 | 0.952 | – | – | – | – | – | 0.787
